In PubChem BioAssay (NCI):
Several values for one entry are separate records, joined by “and”; a condition that tells them apart may be missing. Equal entries are not always repeated.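 Results reflect a 48-hour exposure of cells in 96-well plates to compound at five concentrations. GI50 is the concentration that inhibits growth by half. TGI is the concentration that stops growth completely.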

How the values were obtained:
Assay in all cases: NCI tumour cell line growth inhibition, 48 h
[1] = tested on: HCT-116 colon
[2] = tested on: MOLT-4 leukemia
[3] = tested on: HCC-2998 colon
[4] = tested on: HL-60(TB) leukemia
[5] = tested on: MALME-3M melanoma
[6] = tested on: EKVX NSCLC
[7] = tested on: TK-10 renal
[8] = tested on: HS 578T breast
[9] = tested on: DU-145 prostate
[10] = tested on: NCI/ADR-RES ovarian
[11] = tested on: MCF7 breast

Structure (SMILES)	TGI [1]	TGI [2]	TGI [3]	TGI [4]	TGI [5]	TGI [6]	TGI [7]	TGI [8]	TGI [9]	TGI [10]	TGI [11]	GI50 [11]
COC1(C)CC2N(C(=O)c3ccccc3)N=C(c3ccccc3)CC2(C)O1 (stereo not given)	> 100 µM	> 100 µM	> 100 µM	> 100 µM	> 100 µM	–	–	–	–	–	–	–
COC(=O)C(C#N)=C1c2ccccc2Oc2ccccc21	–	> 100 µM	> 100 µM	56.4 µM	> 100 µM	> 100 µM	> 100 µM	–	–	–	–	–
Cc1cc2c(c(C(=O)NCCC(=O)O)c1)Oc1c(cc(C)cc1C(=O)NCCC(=O)O)S2	> 100 µM	> 100 µM	> 100 µM	–	> 100 µM	> 100 µM	> 100 µM	> 100 µM	> 100 µM	> 100 µM	> 100 µM	–
CC1C(c2cc(C(C)(C)C)c(O)c(C(C)(C)C)c2)c2cc3c(cc2OC1N1CCOCC1)OCO3 (stereo not given)	30.7 µM	> 100 µM	33.4 µM	–	–	> 100 µM	31.2 µM	10.6 µM	> 100 µM	87.4 µM	> 100 µM	–
O=C1NC(c2ccc(O)cc2)C2CCC1C2 (stereo not given)	> 100 µM	> 100 µM	> 100 µM	> 100 µM	> 100 µM	> 100 µM	> 100 µM	–	–	–	–	–
Cc1sc2nc3n(c(=O)c2c1C)N=CN(c1ccccc1)C3	> 100 µM	> 100 µM	> 100 µM	–	> 100 µM	> 100 µM	> 100 µM	–	> 100 µM	> 100 µM	> 100 µM	–
O=c1c2c3ccccc3[nH]c2c2cccc3c2n1CCC3	> 100 µM	86 µM	> 100 µM	–	71.1 µM	95.1 µM	> 100 µM	> 100 µM	> 100 µM	> 100 µM	> 100 µM	–
Cc1ccccc1C(C#N)C(=O)C(=O)Nc1nc([N+](=O)[O-])cs1 (stereo not given)	> 100 µM	–	> 100 µM	> 100 µM	> 100 µM	> 100 µM	> 100 µM	–	–	–	–	–
Oc1ccccc1C(c1cc2c(cc1O)OCO2)N1CCOCC1 (stereo not given)	31.5 µM	40.6 µM	33.9 µM	4.27 µM	32.2 µM	> 100 µM	–	56.4 µM	> 100 µM	–	38.3 µM	–
O=C1CCCN(c2ccccc2)N1	> 100 µM	> 100 µM	> 100 µM	> 100 µM	> 100 µM	> 100 µM	–	–	–	–	–	–
CCOP(=O)(OCC)[C@H](O)c1ccsc1	> 100 µM	> 100 µM	> 100 µM	–	> 100 µM	> 100 µM	> 100 µM	–	> 100 µM	> 100 µM	> 100 µM	–
CC(C)(C)OC(=O)NC(C)(C)C(=O)NCCC(=O)O	–	> 100 µM	–	–	–	> 100 µM	> 100 µM	> 100 µM	–	> 100 µM	> 100 µM	–
COc1ccc(-c2c(C#N)c(N)n(C3OC(CO)C(O)C(O)C3O)c(=S)c2C#N)cc1 (stereo not given)	> 100 µM	> 100 µM	> 100 µM	> 100 µM	> 100 µM	> 100 µM	> 100 µM	47.4 µM	> 100 µM	–	> 100 µM	> 100 µM and 38.4 µM
Cc1ccccc1C1OC1C(=O)c1ccccc1N (stereo not given)	> 100 µM	> 100 µM	> 100 µM	–	–	–	> 100 µM	–	> 100 µM	> 100 µM	> 100 µM	–
COC(=O)c1cc(CC(C)C)c2c(c1)[nH]c1ccccc12	> 100 µM	> 100 µM	> 100 µM	–	> 100 µM	> 100 µM	> 100 µM	–	–	–	–	–
O=C1CC(O)c2c1csc2Br (stereo not given)	49.1 µM	55.3 µM	44 µM	–	82.4 µM	> 100 µM	38.2 µM	72.4 µM	88 µM	49 µM	45.7 µM	–
O=c1[nH]cnc2c(C3OC(CO)C(O)C3O)c[nH]c12 (stereo not given)	> 100 µM	> 100 µM	> 100 µM	> 100 µM	> 100 µM	> 100 µM	> 100 µM	> 100 µM	> 100 µM	–	> 100 µM	–
CCOC(=O)C1=C(C)N(c2ccccc2)C2=C(C(=O)N(c3ccccc3)C2c2ccccc2)C1c1ccccc1 (stereo not given)	> 100 µM	> 100 µM	> 100 µM	> 100 µM	> 100 µM	> 100 µM	> 100 µM	–	–	–	–	–
Cc1cc(-c2nc3ccccc3s2)ccc1NS(=O)(=O)O	> 100 µM	> 100 µM	> 100 µM	–	> 100 µM	> 100 µM	> 100 µM	> 59.5 µM	> 100 µM	> 100 µM	–	–

Structure (SMILES)	TGI [1]	TGI [2]	TGI [3]	TGI [4]	TGI [5]	TGI [6]	TGI [7]	TGI [8]	TGI [9]	TGI [10]	TGI [11]	GI50 [11]
c1ccc(C[P+]2(c3ccccc3)c3ccccc3-c3ccccc32)cc1	> 100 µM	> 100 µM	> 100 µM	> 100 µM	–	> 100 µM	> 100 µM	> 100 µM	> 100 µM	–	> 100 µM	–
CO[C@@H](C(=O)OC1C=CC2(CC1)C(=O)N(C)c1ccccc12)c1ccccc1 (stereo not given in full)	> 100 µM	> 100 µM	> 100 µM	94 µM	–	> 100 µM	> 100 µM	–	> 100 µM	> 100 µM	> 100 µM	–
CC(C)=CCN1CC(C)C(=O)Nc2cc(Cl)ccc21 (stereo not given)	31.9 µM	> 100 µM	97.6 µM	> 100 µM	62.3 µM	94.8 µM	63.8 µM	> 100 µM	> 100 µM	–	44.6 µM	–
COc1ccc2c(c1)c1c(n2CCN2CCOCC2)-c2ccccc2CC1	> 100 µM	48 µM	41.2 µM	–	66.6 µM	–	> 100 µM	42.8 µM	> 100 µM	> 100 µM	> 100 µM	–
CCOc1ccc(N/C(=C(/C(Cl)=C(/Cl)NCCN)[N+](=O)[O-])n2nnc3ccccc32)cc1	74.6 µM	> 100 µM	> 100 µM	–	27.6 µM	> 100 µM	–	98.2 µM	–	> 100 µM	> 100 µM	–
O=C(/C=C/c1ccccc1)/C=C/c1ccccc1O	28.7 µM	63.1 µM	26.8 µM	35.8 µM	1.83 µM	39.8 µM	96.3 µM	–	–	–	–	–
COc1cc(COC(=O)N[C@H](C(=O)O)C(C)(C)C)c([N+](=O)[O-])cc1OC	> 100 µM	> 100 µM	> 100 µM	–	> 100 µM	> 100 µM	> 100 µM	> 100 µM	> 100 µM	> 100 µM	> 100 µM	–
Clc1cc(N/N=C(/c2ccccc2)c2ncccn2)ncn1	28.5 µM	> 100 µM	> 100 µM	–	–	93 µM	–	66.7 µM	> 100 µM	50.8 µM	46.4 µM	–
C[N+](C)(C)CC(=O)N/N=c1\cc(C(=O)Nc2ccc(N=O)cc2C#N)oc2cc(O)ccc12	> 100 µM	> 100 µM	> 100 µM	> 100 µM	> 100 µM	> 100 µM	> 100 µM	–	–	–	–	–
O=c1oc2ccccc2c(O)c1C(c1cc(OCc2ccccc2)cc(OCc2ccccc2)c1)c1c(O)c2ccccc2oc1=O	17.5 µM	19.8 µM	11.9 µM	–	–	41.8 µM	33.4 µM	89.3 µM	24.5 µM	83.9 µM	48.5 µM	–
O=C1O[C@@H](c2ccccc2)C[C@@H]1CN1CCOCC1	–	> 100 µM	> 100 µM	> 100 µM	> 100 µM	> 100 µM	> 100 µM	–	–	–	–	–
O=C1CC2(C[C@@H]3CCCCCCCCC[C@@H](C3)C2)N1 (stereo not given in full)	33.6 µM	37.4 µM	31.9 µM	38.8 µM	24.5 µM	28.2 µM	31.2 µM	–	–	–	–	–
N#C/C(=C\NC(=S)Nc1ccc(S(=O)(=O)Nc2ccccn2)cc1)C(N)=O	> 100 µM	> 100 µM	–	–	> 100 µM	> 100 µM	> 100 µM	> 100 µM	> 100 µM	> 100 µM	> 100 µM	–
N#CCCN(c1ccc(C=Nc2cccc([N+](=O)[O-])c2)cc1)S(=O)(=O)c1ccccc1	> 100 µM	> 100 µM	> 100 µM	> 100 µM	> 100 µM	> 100 µM	> 100 µM	–	–	–	–	–
COC1O[C@H]2CCN(C(=O)OCc3ccccc3)[C@H]2[C@H]1OCc1ccccc1 (stereo not given in full)	> 100 µM	> 100 µM	> 100 µM	68.6 µM	> 100 µM	> 100 µM	> 100 µM	–	–	–	–	–
COc1ccc(C2C(Cl)C(=O)N2NC(=O)c2ccc(NC(C)=O)cc2)cc1 (stereo not given)	> 100 µM	> 100 µM	–	> 100 µM	> 100 µM	> 100 µM	> 100 µM	–	–	–	–	–
Cc1c(Cl)cccc1NC(=O)C(=O)C1C(=O)CC(C)(C)CC1=O	> 100 µM	> 100 µM	> 100 µM	> 100 µM	> 100 µM	> 100 µM	> 100 µM	–	–	–	–	–
CCOC(=O)C(OCC1CC=CCC1)Sc1ccccc1 (stereo not given)	> 100 µM	–	> 100 µM	> 100 µM	> 100 µM	> 100 µM	> 100 µM	–	–	–	–	–
COc1ccc2nc(-c3ccc(OCc4ccccc4)cc3)ccc2c1	> 100 µM	> 100 µM	> 100 µM	> 100 µM	> 100 µM	> 100 µM	> 100 µM	–	–	–	–	–
